This note sets out measurements from patent US20200390793A1, “COMPOSITIONS AND METHODS USING OLEUROPEIN OR CURCUMIN FOR MUSCLE QUALITY AND/OR MUSCLE MASS” (SOCIETE DES PRODUITS NESTLE S.A., priority 2017, published 2020).

The test system of this assay is old rats. The assay is described as follows: Dietary polyphenol supplementation for 3 months in 20 months-old rats: muscle mass and muscle fiber area (immunofluorescence staining and microscopy). In kind it is in vivo. The following applies: supplemented diet for 3 months, compared with control and rutin groups. An excerpt:
20 months-old rats were fed either a control diet or the same diet supplemented with curcumin or rutin or oleuropein for 3 months. CON=control diet, RUT=control diet with rutin, OLE=control diet with oleuropein and CUR=control diet with curcumin. Old rats are a good model to assess the effect of nutritional intervention in age related muscle decline. With this model, it can be observed as in human a decrease in muscle mass and function and a change in muscle quality with age. The objective of the study was to determine the effects of curcumin, oleuropein and rutin on muscle quality in old rats and the association with muscle mass. 20 months-old rats have been divided in four groups and received a complete diet supplemented with either curcumin (CUR), oleuropein (OLE) or rutin (RUT) for 3 months. A control group (CON) received cellulose instead of polyphenols. Fiber type was analyzed in muscle by immunofluorescence staining and microscopy. Exact Wilcoxon test associated with Hodges-Lehmann to estimate the difference between groups and Kolmogorov-Smirnov test to assess the difference for the distribution have been performed for statistical analysis.

Take `COc1cc(/C=C/C(=O)CC(=O)/C=C/c2ccc(O)c(OC)c2)ccc1O` [CUR, curcumin]: the “amount of small fibers area (percentage of cells with an area below 700 μm^2, FIG. 3B)” value is listed as “lower”; the “fiber crossectionnal area (FIG. 3A)” value is reported as “higher”; the muscle mass entry is listed as “higher”.
